Test results from patent publication US20250170252A1, “QUINONE PROTECTED FORMS AND CONJUGATES” (CAMBRIDGE ENTERPRISE LIMITED, priority 2022, published 2025).
Entries after “also recorded” stand apart in the source; their conditions may differ.

Assays:
[1] = In vitro redox-cycling ability, phenol red/horseradish peroxidase assay; type: biochemical; details: HRP/phenol-red reporter assay, absorbance at 610 nm; up to 25 μM
Description: In vitro redox cycling capability of compounds was assessed by phenol red/horseradish peroxidase (HRP) assay by adaption of a previously described protocol (Assay Drug Dev. Technol., 2008, 6, 505-518). Briefly, stocks were prepared as follows: (1) DTT to a concentration of 2.4 μM in PBS pH 7.4 buffer; (2) compound stocks in PBS pH 7.4 buffer to 3× the desired concentration by 1000× dilution of DMSO stocks; (3) a stock of phenol-red-HRP detection reagent containing 300 μg/mL phenol red and 180 μg/mL HRP enzyme in PBS pH 7.4 buffer; (4) a stock of 1 M NaOH in water; (5) a stock of 100 μM H2O2 in PBS prepared by addition of a 30% solution of H2O2 in water into 1000 μL of PBS. Into each well of a 96 well clear flat-bottomed plate was then added 40 μL of compound stock in PBS followed by 40 μL of DTT stock, followed immediately by 40 μL of phenol-red-HRP reagent. A positive control with 100 μM H2O2 added in place of compound was included. The plate was incubated in the dark at room temperature for 15 min. Following this 20 μL of 1 M NaOH was added to each well to terminate the reaction. Absorbance was immediately measured at 610 nm (MiniMax i3x Imager, Molecular Devices). Absorbance of treated wells was normalised to control wells treated with PBS only (zero redox cycling). All readings were performed in triplicate and error bars display standard error of the mean.

HL-60 cells [2] = assay: Cellular ROS detection with DCFH-DA; type: cell-based; details: HL-60, 2′,7′-dichlorodihydrofluorescein diacetate
Description: To determine ROS generation by compounds in leukaemia cells, HL-60 cells were washed with PBS, then incubated in serum free media (10 mL of 1.6×10^6/mL cell concentration) with 2,7-dichlorofluorescin diacetate (DCFH-DA) at 20 μM for 30 min at 37° C. Following this, the cells were washed with PBS and resuspended in Fluorbrite-DMEM media (ThermoFisher) (10 mL). 450 μL of the cell mixture was seeded into wells of a clear flat bottomed 12 well plate, to which 50 μL of a 10× stock of the compounds in media had been already added, to achieve a final compound concentration of 50 μM. The 10× media stocks were made by 100-fold dilution of DMSO compound stocks, to ensure a final in-plate DMSO concentration of 0.1%. DMSO 0.1% only was used as a negative control. H2O2 was used as a positive control, for which 10 μL of a 30% aqueous solution was dissolved into 1 mL DMSO, then diluted 100-fold into media for plating, to give a final H2O2 concentration of […]. After plating the cells were immediately incubated at 37° C. in the dark for 15 min before the fluorescence of the wells (excitation 485 nm, emission 535 nm) was recorded (MiniMax i3x Imager, Molecular Devices). Values recorded are the mean of three repeat wells, with error bars representing the standard error of the mean.

HL-60 cells [3] = assay: N-acetyl cysteine cytotoxicity assay; type: cell-based; details: HL-60
Description: For assays involving cytotoxicity of β-lapachone derivatives with and without antioxidant N—-acetyl cysteine, HL-60 cells were plated into 24 well plates at a concentration of 2.5×10^5 cells/mL in 450 μL. To each well was then added 25 μL of drug diluted in PBS to obtain the correct in-plate drug concentration, and 25 μL of PBS or a stock of N-acetyl cysteine at 12 mM in PBS. DMSO was maintained at an in-plate concentration of 0.1%. After 96 h incubation, toxicity was assessed by counting of live cells using the Trypan Blue exclusion method with a Countess II Automated Cell Counter (ThermoFisher Scientific) according to the manufacturer's instructions. Cell viability was determined by division of average live cell number of treated wells by average live cell number for control wells treated with 0.1% DMSO. […] Values recorded are the mean of three repeat wells, with error bars representing the standard error of the mean for each concentration tested.

ovine blood [4] = assay: Methaemoglobin analysis in sheep's blood; type: cell-based; details: in vitro ovine blood model, 1 h incubation, absorbance at 630 nm
Description: Defibrinated Oxoid™ sheep's blood (ThermoScientific) was diluted to a 5% v/v suspension in PBS pH 7.4. In a 96 well microtiter plate, 150 μL of blood suspension was added to 50 μL of serially diluted compound in PBS containing a 4× stock of each compound of interest. Serial dilution of compounds from DMSO stocks into PBS was performed to achieve an in-plate DMSO concentration of 0.1%. PBS buffer alone was used as a negative control. Three replicates were performed for each compound concentration analysed. The plate was incubated for the specified time at 37° C. The plate was then centrifuged at 3,500 rpm for 5 min. The supernatant was removed and cells lysed by resuspension in 100 μL of a solution of Triton-X-100 (1%) in PBS. Following this 80 μL of lysed cell contents were transferred to a second microtiter plate for UV measurement. To determine methaemoglobin increase, UV absorbance was measured immediately at 630 nm (MiniMax i3x Imager, Molecular Devices). Methaemoglobin increase was determined by (A630−A^0630)/(A^0630)×100, where A630 is the absorbance of the test well at 630 nm, and A^0630 is the absorbance of the negative control at 630 nm. Mean values and standard error of the mean of three independent replicates are plotted.

ovine blood [5] = assay: Haemolysis in in vitro ovine blood model; type: cell-based, sheep; details: compared with β-lapachone 1
[6] = system: range of cancer cell lines, including leukaemia, breast, colon, and cervical cancer; assay: Toxicity to a range of cancer cell lines (panel); type: cell-based; details: relative to parent drug 1
Description: Assays assessing cytotoxicity of β-lapachone and derivatives were performed by CellTiter-Blue assay (Promega) according to the manufacturer's instructions. Briefly, adherent cancer-cell lines were plated at 20,000 cells/well in 96 well plates or suspension cell lines were plated at a concentration of 2×10^5 cells/mL in 24 well plates. Compound stocks in media were made by dilution of DMSO stocks containing the compound of interest to obtain a final in-plate DMSO concentration of only 0.1%. Incubation was performed for 48 h. Following incubation, media was replaced with media containing CellTiter-Blue (Promega) in 1:10 dilution and the plates were incubated for 1.5-4 h. The fluorescence of the plates was recorded (excitation 555 nm, emission 585 nm, […] Reader, Molecular Devices). Cell viability was calculated by division of the fluorescence intensity of treated wells by that of the calculated average fluorescence intensity of replicate negative control wells containing cells with 0.1% DMSO only. Values and reported error bars represent the mean and standard error of the mean of three triplicate repeats for each concentration tested.

MOLM-13 = assay: Viability assay with small molecule prodrugs, Trypan Blue exclusion, MOLM-13; type: cell-based; details: MOLM-13
Description: (§1) For assays assessing cytotoxicity of β-lapachone versus small molecule dipeptide prodrugs, suspension cells were plated into 24 well plates at a density of 2.5×10^5 cells/mL in 240 μL. Serial dilutions of compound were made up in PBS. 60 μL of each stock of either PBS, or compound in PBS was added to the cells to achieve the desired final concentration. After the specified incubation time, toxicity was assessed by counting of live cells using the Trypan Blue exclusion method with a Countess II Automated Cell Counter (ThermoFisher Scientific) according to the manufacturer's instructions. Cell viability was determined by division of average live cell number of treated wells by average live cell number for control wells treated with PBS only. Values recorded are the mean of three repeat wells, with error bars representing the standard error of the mean for each concentration tested. IC50 values were calculated using GraphPad Prism software.

HL-60 = assay: Viability assay with small molecule prodrugs, Trypan Blue exclusion, HL-60; type: cell-based
Description: as §1

HL-60 cells [7] = assay: Lysosomal inhibition assay with small molecule prodrugs; type: cell-based; details: HL-60, compared with untreated
Description: Assays to assess the effect of lysosomal activity on prodrugs were performed as follows: HL-60 cells were plated into 96 well plates at a concentration of 2.5×10^5 cells/mL in 180 μL media. Cells were treated with 10 μL of a stock of NH4Cl in PBS (to obtain an in-plate concentration of 3 or 30 mM), 10 μL of a dilution of a DMSO stock of E64d in PBS (to obtain an in-plate concentration of 30 μM), PBS only, or a dilution of DMSO in PBS. Cells were incubated for 30 min. Following this, 10 μL of a stock of test compound made by dilution of a DMSO stock into media was added. DMSO was present in-plate at a maximum of 0.2%. Cells were incubated overnight for 16 h. Following incubation, media was replaced with media containing CellTiter-Blue (Promega) in 1:4 dilution and the plates were incubated for 6 h. The fluorescence of the plates was recorded (excitation 555 nm, emission 585 nm, MiniMax i3x Reader, Molecular Devices). Cell viability was calculated by division of the fluorescence intensity of treated wells by that of the calculated average fluorescence intensity of the relevant negative control wells. Values and reported error bars represent the mean and standard error of the mean of three triplicate repeats for each concentration tested.

Structure (SMILES)	redox activity (in vitro redox-cycling capability) [1]	ROS generation (HL-60 cells [2])	change of IC50 upon NAC addition (HL-60 cells [3])	methaemoglobin formation (ovine blood [4])	haemolysis of haemoglobin (ovine blood [5])	decrease in toxicity [6] [fold]	IC50 relative to 1 (MOLM-13) [fold]	IC50 relative to 1 (HL-60) [fold]	toxicity after lysosomal deacidification (NH4Cl) or inhibition (E64d) (HL-60 cells [7])
CC1(C)CCC2=C(O1)c1ccccc1C(O)(Cc1ccccc1)C2=O (stereo not drawn) [Compound 24, 6-benzyl-6-hydroxy-2,2-dimethyl-2,3,4,6-tetrahydro-5H-benzo[h]chromen-5-one]	no measurable redox activity; also recorded: non-redox active	did not generate detectable ROS	unchanged	did not occur	lower	> 20	–	–	–
CC1(C)CCc2c3c(c4ccccc4c2O1)OCCO3 [Compound 25, 7,7-dimethyl-2,3,5,6-tetrahydro-1,4,8-trioxatriphenylene, reference compound]	no measurable redox activity	–	–	did not occur	lower	–	–	–	–
CC(C)[C@H](NC(=O)OCc1ccccc1)C(=O)N[C@@H](CCCNC(N)=O)C(=O)Nc1ccc(CC2(O)C(=O)C3=C(OC(C)(C)CC3)c3ccccc32)cc1 (stereo partly drawn) [Compound 26, Cbz-Val-Cit-para-aminobenzyl β-lapa-ketol]	–	–	–	–	–	–	10	10	less toxic
